Source: ChEMBL document CHEMBL1156829 (Proc Natl Acad Sci U S A, 2008)
pEC50: −log10 of the molar value.

Assays:
[1] = NOVARTIS: Cytotoxicity against human hepatocellular carcinoma cell line (Huh7); assay type: toxicity, cell-based, Huh-7; conditions: Huh7 cells (hepatocellular carcinoma cell line)
Plasmodium falciparum [2] = experiment: NOVARTIS: Inhibition of Plasmodium falciparum 3D7 (drug-susceptible) proliferation in erythrocyte-based infection assay; assay type: functional, organism-based; conditions: Plasmodium falciparum, 3D7
Plasmodium falciparum [3] = experiment: NOVARTIS: Inhibition of Plasmodium falciparum W2 (drug-resistant) proliferation in erythrocyte-based infection assay; assay type: functional, organism-based; conditions: Plasmodium falciparum, W2; read-out: EC50

Compound	CC50 [1] [µM]	pEC50 (Plasmodium falciparum [2])	pEC50 (Plasmodium falciparum [3])
OC1=C2C(=Nc3ccccc3SC2c2ccccc2)c2ccccc21 (configuration not stated)	27.1	7.33	6.95
Cc1ccc(NC2=C(N3CCCCC3)C(=O)c3ccccc3C2=O)cc1	18.5	6.88	7.11
O=C(NNc1ccccc1F)C1CCC1	> 10	6.31	7.39
Clc1ccc(-c2c[n+](Cc3ccccc3Cl)c3n2CCC3)cc1	> 87	6.11	6.42
CCOC(=O)c1c(NC(=O)C(C)Sc2nnc(CNC(=O)c3ccco3)n2-c2cccc(Cl)c2)sc2c1CCCC2 (configuration not stated)	> 100	< 4.90	6.37
c1ccc(-c2csc(Nc3nc4cc5c(cc4s3)OCO5)n2)nc1	> 100	6.19	6.38
Cc1ccc(N2C(N)=NC(N)=NC2(C)C)cc1	> 100	7.71	6.37
CCOC(=O)c1[nH]c2ccc(C)cc2c1N=NN(C)C	26.3	6.74	6.94
CCCCCCCC[n+]1c(C)n(CC)c2ccc(Cl)cc21	54.9	6.86	6.62
O=C(CC(=O)N1CCOCC1)Nc1ccc2nc3n(c(=O)c2c1)CCCCC3	> 100	< 5.00	6.36
c1ccc(-c2ccnc3c2ccc2c(-c4ccccc4)ccnc23)cc1	> 100	6.48	6.37
CCCNC(=O)c1ccc(OC2CCN(CC3CCCCC3)CC2)c(Cl)c1	42.4	6.54	6.74
CCOC(=O)c1cnc2ccccc2c1NCCCN(C)C	52.1	6.70	6.65
COc1ccc(NC(C)=C2C(=O)c3ccccc3C2=O)c(OC)c1	> 100	5.90	6.37
COc1ccccc1C(=O)ON=C(N)Cc1cccc2ccccc12	49.6	6.45	6.67
c1ccc(Cn2c(N=NNc3nc4ccccc4n3Cc3ccccc3)nc3ccccc32)cc1	19.2	7.07	7.09
O=C(NCc1ccco1)c1ccc(OC2CCN(Cc3ccncc3)CC2)c(Cl)c1	> 100	6.17	6.37
COC(=O)c1ccc2c(=O)n(Cc3ccc4c(c3)OCO4)c(SCC(=O)n3nc(C)cc3N)nc2c1	> 10	6.84	7.39
Cc1c(C#N)c2ccccc2n1CC(=O)NCCc1ccccc1	> 100	6.40	6.39
C=CCC1C=C(Cc2ccccc2)CC(CC=C)N1 (configuration not stated)	46	5.37	6.73
COc1ccccc1C(=O)Oc1ccccc1-c1nc2ccccn2c1NC(C)(C)CC(C)(C)C	> 10	5.80	7.39
CC1=C(C(=O)OC(C)C)C(c2ccc(Br)cc2)C2=C(CC(c3ccc(Cl)cc3)CC2=O)N1 (configuration not stated)	> 100	5.84	6.39
COc1ccc(Nc2nc(NN=Cc3cccc([N+](=O)[O-])c3)nc(Nc3ccc([N+](=O)[O-])cc3)n2)cc1	> 100	6.39	6.39
O=c1c2ccccc2[nH]c2ccc(I)cc12	> 100	6.41	6.38
CCCCNC1=CC(=O)C(=O)c2ccccc21	> 77.9	6.32	6.49
CCCCc1ccc(C(=O)N(C)CCCNc2ccnc3cc(Cl)ccc23)cc1	> 10	6.37	7.38
COc1ccc(NC2=C(c3ccc(OC)cc3)C(=O)c3ccccc32)cc1	> 100	6.36	6.37

Compound	CC50 [1] [µM]	pEC50 (Plasmodium falciparum [2])	pEC50 (Plasmodium falciparum [3])
CCCc1nc2ccc(NC(=O)c3ccco3)cc2c(=O)n1Cc1ccc(-c2ccccc2)cc1	> 100	6.58	6.37
CCOC(=O)c1ccc(NC2=C(N3CCCCC3)C(=O)c3ccccc3C2=O)cc1	> 80.5	6.61	6.48
CCCCCC(=O)Oc1ccccc1-c1nc2cc(C)ccn2c1NC(C)(C)CC(C)(C)C	> 10	6.15	7.35
O=C(NCCc1ccccc1)c1cnc(NCCCN2CCCC2)nc1NCC1CCCCC1	> 10	6.22	< 7.37
CCOC(=O)c1c(S(=O)(=O)Nc2ccc(C(C)(C)C)cc2)c(-c2ccccc2)n(-c2ccccc2)c1C	> 100	6.16	6.37
CCC1CCCCN1S(=O)(=O)c1cc(Br)cc2c1N(C(=O)C1CC1)CC2 (configuration not stated)	> 100	5.55	6.35
c1ccc2c(NCCc3c[nH]c4ccccc34)c3ccccc3nc2c1	7.08	7.07	7.50
CCC(CC)CN1CCC(O)(c2ccc3oc(C(=O)Nc4ccc(OC)c(OC)c4)cc3c2)CC1	> 85.9	6.46	6.44
OC(CN1CCN(Cc2ccccc2)CC1)Cn1c2ccc(Cl)cc2c2cc(Cl)ccc21 (configuration not stated)	15.7	6.66	7.18
O=C(NCc1cccs1)c1ccc(OC2CCN(CC3CCCCC3)CC2)c(Cl)c1	> 10	6.14	7.35
OC(CN1CCN(CC=Cc2ccccc2)CC1)Cn1c2ccc(Cl)cc2c2cc(Cl)ccc21 (configuration not stated)	17.9	6.74	7.12
CCOC(=O)c1c(C)[nH]c(C)c1S(=O)(=O)N1CCCC(C(=O)N2CCN(c3cc(C)ccc3C)CC2)C1 (configuration not stated)	> 82.3	6.64	6.44
O=C1c2ccccc2C2=Nc3ccccc3SC(c3cccc(F)c3)C12 (configuration not stated)	30.3	7.06	6.87
CC(C)(C)CC(C)(C)Nc1c(-c2ccccc2OC(=O)c2cccc(Cl)c2)nc2ccccn12	> 10	6.20	7.38
COc1ccc(OC)c(-c2ccc(C(=O)N3CCN(CC=Cc4ccccc4)CC3)c(N(C)C)n2)c1	32.8	7.02	6.84
C=CC1CN2CCC1CC2C(OC(=O)c1ccco1)c1ccnc2ccccc12 (configuration not stated)	41.8	7.45	6.74
COc1cc(C2C3=C(CC(C)(C)CC3=O)Nc3ccccc3N2C(=O)C(C)C)cc(OC)c1OC (configuration not stated)	> 10	< 5.90	7.39
CC(NC(=S)N(Cc1ccco1)Cc1cc2cc3c(cc2[nH]c1=O)OCO3)c1ccccc1 (configuration not stated)	> 100	5.86	6.39
CCCCNC(=O)C(c1cccc(OC)c1)N1C(=O)c2cc(OCCc3cccc(OC)c3)ccc2NC(=O)C1CO (configuration not stated)	> 10	6.96	7.37
CCCc1c(C)nc2ccccc2c1O	> 100	6.20	6.37
S=C(Nc1ccccc1)N1CCCN(c2nc3ccc(Cl)cc3s2)CC1	> 86.9	6.30	6.43
COc1cccc(CCN2Cc3ccc(C(=O)NC(C)C)cc3N=C2c2cccnc2)c1	> 10	7.77	< 7.37
COc1cc2nc(NC(=N)N)nc(C)c2cc1OC	> 10	7.61	7.36
CCCNC(=O)N1CCC2(CC1)CC(=O)c1cc(C)ccc1O2	> 100	6.06	6.35
O=C(c1ccccc1)N1CCN(c2ccccc2NC(=O)C(Cl)(Cl)Cl)CC1	> 100	6.27	6.37
Nc1nonc1-n1nnc(C(=O)NN=Cc2cccc(Cl)c2)c1-c1ccccc1	> 100	6.37	6.36
COc1ccc(-c2c[n+](CC(=O)c3ccc([N+](=O)[O-])cc3)c3n2CCC3)cc1	> 100	6.29	6.37
